The term inhibition denotes the drop in the measured response relative to a control, in per cent. High values mean a strong effect, low ones a weak effect.

SMILES strings stand for the structures. Structures can show the parent of a compound that is named as a salt.

Inhibition and inhibition in vivo data for 21 compounds are collected here from patent US20090042856A1, “PYRIDAZINONE DERIVATIVES USED FOR THE TREATMENT OF PAIN” (Astellas Pharma Inc, priority 2005, published 2009).

The first assay concerns TNF-α production in THP-1 cells. Briefly: Inhibition of TNF-α production in THP-1 cells. It is filed as cell-based. As to conditions: Homo sapiens; TNF-α levels from LPS (10 μg/mL) stimulated THP-1 cells, 100 nM test compound, 20 hours, vs 0.1% DMSO control. Here is the method:
THP-1 cells, a human monocytic cell line, were maintained in RPMI 1640 (Sigma R8758) supplemented with penicillin (50 U/ml), streptomycin (50 μg/ml) and 10% fetal bovine serum (Moregate BioTech.) at 37° C., 5% CO2 in a humidified incubator. Initial stock solutions of test compounds were made in DMSO. All cells, reagents and test compounds were diluted into culture media. THP-1 cells (1×10^5 cells/well final) and lipopolysaccharide (LPS; 10 μg/mL final; Sigma L-4005, from E. coli serotype 055:B5) were added to 96 well polypropylene culture plates (Sumilon, MS-8196F5; sterile) containing test compound or 0.1% DMSO vehicle. The cell mixture was incubated for 20 hours in a humidified incubator at 37° C., 5% CO2. The culture supernatants were harvested and TNF-α levels from LPS stimulated cells in the presence of 100 nM test compound was calculated compared with control cells stimulated in the presence of 0.1% DMSO.
The compound `Cc1ccccc1-n1nc(-c2c(-c3ccc(F)cc3)nn3c2NCC(C(=O)NC2CC2)C3)ccc1=O` (stereo not shown) [Example 57, N-cyclopropyl-2-(4-fluorophenyl)-3-[1-(2-methylphenyl)-6-oxo-1,6-dihydropyridazin-3-yl]-4,5,6,7-tetrahydropyrazolo[1,5-a]pyrimidine-6-carboxamide] had an inhibition at 0.1 µM of 97%.

In the case of `Cc1ccccc1N1N=C(c2c(-c3ccc(F)cc3F)nn3c2NCC(CN(C)C)C3)CCC1=O` (stereo not shown) [Example 55, 6-{2-(2,4-difluorophenyl)-6-[(dimethylamino)methyl]-4,5,6,7-tetrahydropyrazolo[1,5-a]pyrimidin-3-yl}-2-(2-methylphenyl)-4,5-dihydropyridazin-3(2H)-one], 0.1 µM produced 98% inhibition.

Compound `Cc1ccccc1-n1nc(-c2c(-c3ccc(F)cc3)nn3c2N[C@H](CO)CC3)ccc1=O` [Example 123, 6-[(5S)-2-(4-fluorophenyl)-5-(hydroxymethyl)-4,5,6,7-tetrahydropyrazolo[1,5-a]pyrimidin-3-yl]-2-(2-methylphenyl)pyridazin-3(2H)-one] displayed an inhibition at 0.1 µM of 94%.

For the compound `Cc1ccccc1-n1nc(-c2c(-c3ccc(F)cc3)nn3c2NCC(F)(F)C3)ccc1=O` [Example 85, 6-[6,6-Difluoro-2-(4-fluorophenyl)-4,5,6,7-tetrahydropyrazolo[1,5-a]pyrimidin-3-yl]-2-(2-methylphenyl)pyridazin-3(2H)-one], testing at 0.1 µM gave an inhibition of 88%.

`CCN1CCn2nc(-c3ccc(F)cc3)c(-c3ccc(=O)n(-c4ccccc4C)n3)c21` [Example 6, 6-[1-Ethyl-6-(4-fluorophenyl)-2,3-dihydro-1H-imidazo[1,2-b]pyrazol-7-yl]-2-(2-methylphenyl)-3(2H)-pyridazinone]: at 0.1 µM the inhibition was 80%.

The compound `Cc1ccccc1-n1nc(-c2c(-c3ccc(F)cc3)nn3c2NCC(CN2CCN(C)CC2)C3)ccc1=O` (stereo not shown) [Example 47, 6-(2-(4-Fluorophenyl)-6-[(4-methylpiperazin-1-yl)methyl]-4,5,6,7-tetrahydropyrazolo[1,5-a]pyrimidin-3-yl)-2-(2-methylphenyl)pyridazin-3(2H)-one dihydrochloride] registered an inhibition at 0.1 µM of 95%.

For the compound `Cc1ccccc1-n1nc(-c2c(-c3ccc(F)cc3)nn3c2OCC3)ccc1=O` [Example 125, 6-[6-(4-fluorophenyl)-2,3-dihydropyrazolo[5,1-b][1,3]oxazol-7-yl]-2-(2-methylphenyl)pyridazin-3(2H)-one], the inhibition at 0.1 µM stood at 83%.

Turning to `Cc1ccccc1-n1nc(-c2c(-c3ccccc3)nn3c2CN(C(C)C)CC3)ccc1=O` [Example 130, 6-(5-isopropyl-2-phenyl-4,5,6,7-tetrahydropyrazolo[1,5-a]pyrazin-3-yl)-2-(2-methylphenyl)pyridazin-3(2H)-one], testing at 0.1 µM gave an inhibition of 70%.

Consider `CC(=O)N1CCC2(CC1)CNc1c(-c3ccc(=O)n(-c4ccccc4C)n3)c(-c3ccc(F)cc3)nn1C2` [Example 107, 6-[1-acetyl-2′-(4-fluorophenyl)-4′,5′-dihydrospiro[piperidine-4,6′-pyrazolo[1,5-a]pyrimidin]-3′-yl]-2-(2-methylphenyl)pyridazin-3(2H)-one], for which the inhibition at 0.1 µM came to 90%.

Consider `Cc1ccccc1-n1nc(-c2c(-c3ccc(F)cc3F)nn3c2NCC(CNC(C)(C)C)C3)ccc1=O` (stereo not shown) [Example 98, 6-{6-[(tert-Butylamino)methyl]-2-(2,4-difluorophenyl)-4,5,6,7-tetrahydropyrazolo[1,5-a]pyrimidin-3-yl}-2-(2-methylphenyl)pyridazin-3(2H)-one], for which 0.1 µM produced 86% inhibition.

The compound `Cc1ccccc1-n1nc(-c2c(-c3ccc(F)cc3F)nn3cc(CN(C)C)cnc23)ccc1=O` [Example 2, 6-{2-(2,4-Difluorophenyl)-6-[(dimethylamino)methyl]pyrazolo[1,5-a]pyrimidin-3-yl}-2-(2-methylphenyl)-3(2H)-pyridazinone] came in with an inhibition at 0.1 µM of 98%.

Take `Cc1ccccc1-n1nc(-c2c(-c3ccc(F)cc3)nn3c2NC(CO)CC3)ccc1=O` (stereo in doubt) [Example 124, 6-[(5S)-2-(4-Fluorophenyl)-5-(hydroxymethyl)-4,5,6,7-tetrahydropyrazolo[1,5-a]pyrimidin-3-yl]-2-(2-methylphenyl)pyridazin-3(2H)-one]: testing at 0.1 µM gave an inhibition of 94%.

The compound `Cc1ccccc1-n1nc(-c2c(-c3ccc(F)cc3F)nn3c2NCC(CN(C)C)C3)ccc1=O` (stereo not shown) [Example 1, 6-{2-(2,4-difluorophenyl)-6-[(dimethylamino)methyl]-4,5,6,7-tetrahydropyrazolo[1,5-a]pyrimidin-3-yl}-2-(2-methylphenyl)-3(2H)-pyridazinone] yielded an inhibition at 0.1 µM of 88%.

Regarding `Cc1ccccc1-n1nc(-c2c(-c3ccc(F)cc3F)nn3c2NCC(CO)C3)ccc1=O` (stereo not shown) [Example 37, 6-[2-(2,4-Difluorophenyl)-6-(hydroxymethyl)-4,5,6,7-tetrahydropyrazolo[1,5-a]pyrimidin-3-yl]-2-(2-methylphenyl)pyridazin-3(2H)-one], the inhibition at 0.1 µM amounted to 94%.

As to `Cc1ccccc1-n1nc(-c2c(-c3ccc(F)cc3)nn3c2NCC(CO)(CO)C3)ccc1=O` [Example 35, 6-[2-(4-Fluorophenyl)-6,6-bis(hydroxymethyl)-4,5,6,7-tetrahydropyrazolo[1,5-a]pyrimidin-3-yl]-2-(2-methylphenyl)pyridazin-3(2H)-one], the inhibition at 0.1 µM amounted to 90%.

The next assay has as its system adjuvant-induced arthritis rats. Briefly: Inhibition of hind paw swelling in adjuvant-induced arthritis rats. It is filed as in vivo, Lewis rats. As to conditions: Rattus norvegicus, po, 600 h, dose 0.3 mg/kg orally once a day from days 15 to 24, left hind paw volume on day 25, read-out: % inhibition of vehicle-treated rats. Here is the method: Arthritis was induced by injection of 0.5 mg of Mycobacterium tuberculosis (Difco Laboratories, Detroit, Mich.) in 50 μL of liquid paraffin into the right hind footpad of female Lewis rats aged 7 weeks (day 0). Normal untreated rats were used as negative controls. Animals were randomized and grouped (n≧5) for drug treatment based on an increase of left hind paw volume and body weight on day 15. Test compounds were suspended in vehicle (0.5% methylcellulose) and orally administered once a day from days 15 to 24. The volume of the left hind paw was measured on day 25 by a water displacement method using a plethymometer for rats (MK-550; Muromachi Kikai Co., Ltd., Tokyo, Japan).
As to `Cc1ccccc1-n1nc(-c2c(-c3ccc(F)cc3F)nn3c2NCC(CN(C)C)C3)ccc1=O` (stereo not shown) [Example 1, 6-{2-(2,4-difluorophenyl)-6-[(dimethylamino)methyl]-4,5,6,7-tetrahydropyrazolo[1,5-a]pyrimidin-3-yl}-2-(2-methylphenyl)-3(2H)-pyridazinone], the inhibition in vivo at 0.3 mg/kg is 51.2%.

Still in this assay, the particulars now being: Rattus norvegicus, po, 600 h, dose 0.5 mg/kg orally once a day from days 15 to 24, left hind paw volume on day 25, read-out: % inhibition of vehicle-treated rats.
`Cc1ccccc1-n1nc(-c2c(-c3ccc(F)cc3)nn3c2NC[C@@H](O)C3)ccc1=O` [Example 100, 6-[(6R)-2-(4-Fluorophenyl)-6-hydroxy-4,5,6,7-tetrahydropyrazolo[1,5-a]pyrimidin-3-yl]-2-(2-methylphenyl)pyridazin-3(2H)-one]: the inhibition in vivo at 0.5 mg/kg turned out to be 40.2%.

Staying with this assay, now noted: Rattus norvegicus, po, 600 h, dose 1 mg/kg orally once a day from days 15 to 24, left hind paw volume on day 25, read-out: % inhibition of vehicle-treated rats.
For `Cc1ccccc1-n1nc(-c2c(-c3ccc(F)cc3)nn3c2N[C@H](CO)CC3)ccc1=O` [Example 123, 6-[(5S)-2-(4-fluorophenyl)-5-(hydroxymethyl)-4,5,6,7-tetrahydropyrazolo[1,5-a]pyrimidin-3-yl]-2-(2-methylphenyl)pyridazin-3(2H)-one], the inhibition in vivo at 1 mg/kg worked out at 62.3%.

For `Cc1ccccc1-n1nc(-c2c(-c3ccc(F)cc3)nn3c2NCC(CO)C3)ccc1=O` (stereo not shown) [Example 3, 6-[2-(4-Fluorophenyl)-6-(hydroxymethyl)-4,5,6,7-tetrahydropyrazolo[1,5-a]pyrimidin-3-yl]-2-(2-methylphenyl)-3(2H)-pyridazinone], the inhibition in vivo at 1 mg/kg came out at 56.4%.

On to `Cc1ccccc1-n1nc(-c2c(-c3ccc(F)cc3)nn3c2NCC2(C3)OCCO2)ccc1=O` [Example 86, 6-[2′-(4-Fluorophenyl)-4′,5′-dihydrospiro[1,3-dioxolane-2,6′-pyrazolo[1,5-a]pyrimidin]-3′-yl]-2-(2-methylphenyl)pyridazin-3(2H)-one], for which the inhibition in vivo at 1 mg/kg came to 48.1%.

On to `Cc1ccccc1-n1nc(-c2c(-c3ccc(F)cc3)nn3c2NCC2(CCOCC2)C3)ccc1=O` [Example 63, 6-[2′-(4-Fluorophenyl)-2,3,4′,5,5′,6-hexahydrospiro[pyran-4,6′-pyrazolo[1,5-a]pyrimidin]-3′-yl]-2-(2-methylphenyl)pyridazin-3(2H)-one], for which the inhibition in vivo at 1 mg/kg came to 39.5%.

For `Cc1ccccc1-n1nc(-c2c(-c3ccc(F)cc3)nn3c2NCC(C)(C)C3)ccc1=O` [Example 132, 6-[2-(4-Fluorophenyl)-6,6-dimethyl-4,5,6,7-teterahydropyrazolo[1,5-a]pyrimidin-3-yl]-2-(2-methylphenyl)pyridazin-3(2H)-one], the inhibition in vivo at 1 mg/kg came out at 60.4%.

With `Cc1ccccc1-n1nc(-c2c(-c3ccc(F)cc3)nn3c2NC(CO)CC3)ccc1=O` (stereo in doubt) [Example 124, 6-[(5S)-2-(4-Fluorophenyl)-5-(hydroxymethyl)-4,5,6,7-tetrahydropyrazolo[1,5-a]pyrimidin-3-yl]-2-(2-methylphenyl)pyridazin-3(2H)-one], the inhibition in vivo at 1 mg/kg came to 50.6%.

`Cc1ccccc1-n1nc(-c2c(-c3ccc(F)cc3F)nn3c2NCC(CO)C3)ccc1=O` (stereo not shown) [Example 37, 6-[2-(2,4-Difluorophenyl)-6-(hydroxymethyl)-4,5,6,7-tetrahydropyrazolo[1,5-a]pyrimidin-3-yl]-2-(2-methylphenyl)pyridazin-3(2H)-one]: the inhibition in vivo at 1 mg/kg turned out to be 63.6%.

As to `Cc1ccccc1-n1nc(-c2c(-c3ccc(F)cc3)nn3c2NCC(O)C3)ccc1=O` (stereo not shown) [Example 18, 6-[2-(4-Fluorophenyl)-6-hydroxy-4,5,6,7-tetrahydropyrazolo[1,5-a]pyrimidin-3-yl]-2-(2-methylphenyl)-3(2H)-pyridazinone], the inhibition in vivo at 1 mg/kg was 46.1%.
